One compound from patent US9598387B2 (Southern Research Institute, priority 2012, dated 2017) can be followed below.

Assay [1] deals with human D3 dopamine receptor (Homo sapiens (Human), UniProt P35462). The assay can be described thus: Radioligand binding (125I-IABN competition), D3. As to conditions: 125I-IABN competition, HEK cell membranes expressing human D3. As for the experimental part:
The affinities of the target compounds were determined using radioligand binding experiments. […] Competition curves were modeled for a single site. Data from competition dose-response curves were analyzed using Tablecurve program (Jandel). IC50 values were converted to equilibrium dissociation constants (Ki values) using the Cheng and Prusoff correction.

The next assay concerns the target human D2L receptors (Homo sapiens (Human), UniProt P14416). The assay can be described thus: [35S]GTPγS Binding Assay, CHO D2 membranes. It counts as biochemical. The following applies: antagonist vs dopamine; Ke = functional Ki; read-out: CHO-hD2 Ke. As for the experimental part: Chinese hamster ovary (CHO) cells expressing human D2L and D3 receptors served as the source for membrane fractions which were washed and resuspended with assay buffer containing Mg^2+, Na^+, EGTA, and bovine serum albumin. The GTPγS binding assays were performed in a final volume of 0.5 mL for CHO D2 and 1 mL for CHO D3 containing test drug or dopamine (1 mM for D2 cells, and 100 μM for D3 cells) as indicator of binding plateau, [^35S]GTPγS (0.11 nM for CHO D2 and 0.07 nM for CHO D3, 1,250 Ci/mmole, Perkin Elmer, Boston, Mass. 02118); and cell membrane suspension (in assay buffer and GDP for final concentration of 3 μM for CHO D2 and 6 μM for CHO D3). […] The plateau binding (maximal binding stimulation) with test compound was expressed as percent of maximal binding observed with the full agonist dopamine (% Emax). Antagonist activity was assessed by testing a fixed concentration of the test compound and varying concentration of the agonist, dopamine (0.001-100 μM for CHO D2 and 0.1 nM-10 uM for CHO D3). Ke is the functional Ki (equilibrium dissociation constant) of an antagonist and is calculated according to the equation: [Test Compound]/(EC50-2/EC50-1−1), where EC50-2 is the EC50 value in the presence of the test compound and EC50-1 is the value in the absence of the test compound.
For orientation: Binding of GTPγS marks nucleotide exchange on a G protein.

Another assay has as its system Long Evans rats. Briefly: Cocaine-induced locomotor activity. It counts as in vivo, rat. The following applies: 3.75, 7.5 or 15 mg/kg 10 minutes before 10 mg/kg cocaine; p<0.05. The procedure: These studies were performed using Long Evans rats using standard protocols. Locomotor activity chambers measuring 43×43×30 cm (l×w×h) were used for the locomotor activity experiments. Each chamber was equipped with eight photo-emitters positioned along the length of the chamber 6 cm above the floor, each paired directly opposite a photocell. Locomotor activity counts were registered when adjacent beams were broken consecutively. Before receiving any drug, the animals (n=96) were placed in locomotor activity chambers for habituation, for 2 hours per day for 3 consecutive days. Based on the locomotor activity score obtained during the third habituation session, animals were assigned into one of […] treatment groups. […] For the 113 alone experiments, each of the four groups received one of 4 doses of 113 (0, 3.75, 7.5 or 15 mg/kg) 10 minutes prior to placement in the activity chambers. For the 113 cocaine interaction experiments, each of 4 groups were injected with one of the 4 doses of the compound (0, 3.75, 7.5 or 15 mg/kg) 10 minutes before receiving 10 mg/kg of cocaine as the second injection. […] The locomotor counts in the 113 alone and 113/cocaine experiments were analyzed using two separate mixed-design ANOVAs with 113 dose (between-groups) and 5-min bins (repeated measures) as factors. […]

human D2L receptors, sequence (P14416 whole entry): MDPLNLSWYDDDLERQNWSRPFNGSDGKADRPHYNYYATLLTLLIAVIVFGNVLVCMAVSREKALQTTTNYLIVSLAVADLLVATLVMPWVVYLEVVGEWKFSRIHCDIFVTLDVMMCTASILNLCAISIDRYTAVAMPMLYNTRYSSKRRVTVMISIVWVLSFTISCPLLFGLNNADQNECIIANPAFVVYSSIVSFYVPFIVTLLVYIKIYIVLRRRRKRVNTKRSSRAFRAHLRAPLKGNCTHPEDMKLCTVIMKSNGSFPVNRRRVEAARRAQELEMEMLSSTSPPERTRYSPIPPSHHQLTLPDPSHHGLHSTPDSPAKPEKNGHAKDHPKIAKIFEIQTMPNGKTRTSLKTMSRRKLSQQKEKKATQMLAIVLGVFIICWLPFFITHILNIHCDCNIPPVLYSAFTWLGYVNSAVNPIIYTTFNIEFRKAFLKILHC
human D3 dopamine receptor, sequence (P35462 whole entry): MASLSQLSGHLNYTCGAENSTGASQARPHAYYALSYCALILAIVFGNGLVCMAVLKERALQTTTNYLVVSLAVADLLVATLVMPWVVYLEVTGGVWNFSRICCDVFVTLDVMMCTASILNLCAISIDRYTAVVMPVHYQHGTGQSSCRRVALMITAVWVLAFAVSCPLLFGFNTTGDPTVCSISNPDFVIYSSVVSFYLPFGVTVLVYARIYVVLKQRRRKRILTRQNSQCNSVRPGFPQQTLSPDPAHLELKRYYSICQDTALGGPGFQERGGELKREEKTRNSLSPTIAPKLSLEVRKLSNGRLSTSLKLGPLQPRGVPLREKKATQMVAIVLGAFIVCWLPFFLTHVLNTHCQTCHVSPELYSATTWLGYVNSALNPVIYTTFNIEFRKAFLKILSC

For `CC(C)(C)c1nc(N2CCN(CCCCNC(=O)c3cn4ccccc4n3)CC2)cc(C(F)(F)F)n1` [Compound 113, N-(4-(4-(2-(tert-Butyl)-6-(trifluoromethyl)pyrimidin-4-yl)piperazin-1-yl)butyl)imidazo[1,2-a]pyridine-2-carboxamide], the figures for the Ki (in assay [1]; at human D2L receptors) were 0.0042 ± 0.0006 µM and 0.111 ± 0.025 µM, respectively. For the same compound, the cocaine-induced locomotor activity result in the assay on Long Evans rats was “significantly reduce cocaine-induced locomotor activity in a dose-related fashion”.
